Test results as given in patent US20230265098A1, “ALKYNE QUINAZOLINE DERIVATIVES AS INHIBITORS OF ERBB2” (EnLiven Therapeutics, Inc., priority 2020, published 2023).
pIC50: −log10 of the molar value.

What was measured:
BT-474 cells = assay: Cell viability assay (CellTiter Glo); type: cell-based; settings: Homo sapiens, 72 hours, 2000 cells per well, 384-well, DMEM + 10% FBS
Experimental: (§1) Cells were treated with compounds, and cell viability was measured as a metric of kinase inhibition.
(§2) The Ba/F3 cell line is IL-3-dependent mouse cell line derived from the C3H mouse strain. Ba/F3 cell lines were engineered to express human ERBB2 or EGFR kinases, rendering the cells IL-3 independent. The lines were generated via retroviral transduction utilizing a Moloney murine leukemia virus (MMLV) promoter, and constructs are stably integrated into the cell genome.
(§3) Similarly, Ba/F3 cell lines engineered to express EGFR, ERBB2, or ERBB2 mutants were grown, harvested, counted and seeded at 3000 cells per well in 96-well plates for the data sets shown in Tables B3-B4, and seeded at 300 cells per well in 384-well plates for the data set shown in Table B5. A subset of wells contained media only (low control, “LC”).
(§4) Table B2 provides the growth media and number of cells seeded per well for the each cell line.
(§5) Compounds were dissolved in DMSO and serially diluted. Serially-diluted compound or a DMSO only control (high control, “HC”) was added to the plated cells in each well. […] The final proportion of DMSO never exceeded 0.1%.
(§6) Plates were placed in a 37° C., 5% CO2 incubator for 72 hours. Plates were then removed from the incubator and equilibrated for 15 minutes at room temperature. 40 IA of CellTiter Glo reagent (Promega) was added to measure the relative level of metabolically active cells by quantifying intracellular ATP concentrations. Plates were incubated for 30 minutes at room temperature, and luminescence was measured. Percent viability was normalized to a vehicle control only using the following formula: % viability=100×(LumSample−LumLC) (LumHC−LumLC). Graphical curves were fitted using a nonlinear regression model with a sigmoidal dose response.

[1] = molecular target: T1, phosphorylated ERBB2 (pERBB2) (Homo sapiens, UniProt P04626); assay: Detection of phosphorylated ERBB2 (pERBB2) by ELISA in BT-474 cells; type: cell-based; settings: four hours incubation with compound, OD 450 nm
T1 construct: endogenous in cells; host or cells: BT-474
Procedure, shortened: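 BT-474 cells were treated for 4 h at 37 °C with four-fold compound dilutions from 10 μM to 0.01 nM final, then lysed. Phospho-ERBB2 in the lysates was measured by ELISA with TMB read-out at 450 nm. Relative activity was normalised between cell-free wells and 0.1% DMSO-treated cells.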

[2] = molecular target: T2, phosphorylated EGFR (pEGFR) (Homo sapiens, UniProt P00533); assay: Detection of phosphorylated EGFR (pEGFR) in EGF-stimulated A431 cells (AlphaLISA); type: cell-based; settings: A431 cells (10% FBS), 4 hours with compound, then EGF 30 ng/mL for 10 minutes
T2 construct: endogenous in cells; host or cells: A431

A431 cells = assay: Cell viability assay (CellTiter Glo); type: cell-based; settings: Homo sapiens, A-431; 72 hours; 1500 cells per well, 384-well; DMEM + 10% FBS
Experimental: as §1, §2, §3, §4, §5, §6

MDA-MB-175VII cells = assay: Cell viability assay (CellTiter Glo); type: cell-based; settings: Homo sapiens, 72 hours, 2000 cells per well, 384-well, RPMI + 10% FBS
Experimental: as §1, §2, §3, §4, §5, §6

[3] = molecular target: T3, Ba/F3 ERBB2 A775_G776insYVMA (Homo sapiens, UniProt P04626, DUP772-775, cells depend on it); assay: Cell viability assay (CellTiter Glo); type: cell-based, mouse; settings: 72 hours; 3000 cells per well, 96-well plates (Tables B3-B4); read-out: Cell viability IC50, nM, Ba/F3 ERBB2 A775_G776insYVMA
T3 construct: Ba/F3 cell lines were engineered to express human ERBB2 or EGFR kinases, rendering the cells IL-3 independent
Experimental: as §1, §2, §3, §4, §5, §6

Ba/F3 ERBB2 wt = molecular target: T4, Ba/F3 ERBB2 wt (Homo sapiens, UniProt P04626); assay: Cell viability assay (CellTiter Glo); type: cell-based, mouse; settings: 72 hours; 3000 cells per well, 96-well plates; read-out: Cell viability IC50, nM, Ba/F3 ERBB2 wt
T4 construct: Ba/F3 cell lines were engineered to express human ERBB2 or EGFR kinases, rendering the cells IL-3 independent
T4 sequence (P04626 whole entry, change not shown): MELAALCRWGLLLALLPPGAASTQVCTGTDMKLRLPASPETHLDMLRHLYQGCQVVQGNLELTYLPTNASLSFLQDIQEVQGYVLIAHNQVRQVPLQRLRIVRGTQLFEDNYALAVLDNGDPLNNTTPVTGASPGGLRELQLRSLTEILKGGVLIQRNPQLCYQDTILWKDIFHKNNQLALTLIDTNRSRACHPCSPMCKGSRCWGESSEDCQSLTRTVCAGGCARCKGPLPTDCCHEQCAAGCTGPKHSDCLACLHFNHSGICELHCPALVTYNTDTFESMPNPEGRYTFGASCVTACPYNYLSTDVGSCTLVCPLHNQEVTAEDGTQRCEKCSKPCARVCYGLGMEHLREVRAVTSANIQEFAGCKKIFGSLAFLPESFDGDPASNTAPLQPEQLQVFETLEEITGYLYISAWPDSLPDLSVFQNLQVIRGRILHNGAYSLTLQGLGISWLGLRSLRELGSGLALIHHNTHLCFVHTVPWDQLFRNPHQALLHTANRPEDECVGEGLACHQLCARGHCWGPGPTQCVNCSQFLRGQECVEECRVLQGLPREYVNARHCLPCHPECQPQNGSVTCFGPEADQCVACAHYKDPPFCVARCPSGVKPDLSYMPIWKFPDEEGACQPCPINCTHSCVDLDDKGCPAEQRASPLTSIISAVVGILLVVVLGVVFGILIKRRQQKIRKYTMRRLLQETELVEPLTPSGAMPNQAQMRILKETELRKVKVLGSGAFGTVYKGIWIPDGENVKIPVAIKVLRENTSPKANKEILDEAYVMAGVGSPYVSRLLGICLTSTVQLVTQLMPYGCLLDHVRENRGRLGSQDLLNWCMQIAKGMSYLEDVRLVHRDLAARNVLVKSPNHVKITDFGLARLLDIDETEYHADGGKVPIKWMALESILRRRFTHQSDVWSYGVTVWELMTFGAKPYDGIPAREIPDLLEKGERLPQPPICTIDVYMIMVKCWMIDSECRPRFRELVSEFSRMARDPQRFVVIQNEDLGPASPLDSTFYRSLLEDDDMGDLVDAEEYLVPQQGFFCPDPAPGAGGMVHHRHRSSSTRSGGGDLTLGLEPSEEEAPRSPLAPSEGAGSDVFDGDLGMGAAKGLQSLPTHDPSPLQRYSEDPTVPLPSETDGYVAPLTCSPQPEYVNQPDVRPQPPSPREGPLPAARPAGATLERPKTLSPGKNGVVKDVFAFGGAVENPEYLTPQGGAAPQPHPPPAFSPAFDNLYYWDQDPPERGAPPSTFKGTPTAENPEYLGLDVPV
Experimental: as §1, §2, §3, §4, §5, §6

Ba/F3 ERBB2-G776VC = molecular target: T5, Ba/F3 ERBB2-G776VC (Homo sapiens, UniProt P04626, DELINS776-776VC, cells depend on it); assay: Cell viability assay (CellTiter Glo); type: cell-based, mouse; settings: 72 hours; 3000 cells per well, 96-well plates; read-out: Cell viability IC50, nM, Ba/F3 ERBB2-G776VC
T5 construct: Ba/F3 cell lines were engineered to express human ERBB2 or EGFR kinases, rendering the cells IL-3 independent
Experimental: as §1, §2, §3, §4, §5, §6

Ba/F3 ERBB2-L755S = molecular target: T6, Ba/F3 ERBB2-L755S (Homo sapiens, UniProt P04626, L755S, cells depend on it); assay: Cell viability assay (CellTiter Glo); type: cell-based, mouse; settings: 72 hours; 3000 cells per well, 96-well plates; read-out: Cell viability IC50, nM, Ba/F3 ERBB2-L755S
T6 construct: Ba/F3 cell lines were engineered to express human ERBB2 or EGFR kinases, rendering the cells IL-3 independent
T6 sequence (P04626 whole entry L755S): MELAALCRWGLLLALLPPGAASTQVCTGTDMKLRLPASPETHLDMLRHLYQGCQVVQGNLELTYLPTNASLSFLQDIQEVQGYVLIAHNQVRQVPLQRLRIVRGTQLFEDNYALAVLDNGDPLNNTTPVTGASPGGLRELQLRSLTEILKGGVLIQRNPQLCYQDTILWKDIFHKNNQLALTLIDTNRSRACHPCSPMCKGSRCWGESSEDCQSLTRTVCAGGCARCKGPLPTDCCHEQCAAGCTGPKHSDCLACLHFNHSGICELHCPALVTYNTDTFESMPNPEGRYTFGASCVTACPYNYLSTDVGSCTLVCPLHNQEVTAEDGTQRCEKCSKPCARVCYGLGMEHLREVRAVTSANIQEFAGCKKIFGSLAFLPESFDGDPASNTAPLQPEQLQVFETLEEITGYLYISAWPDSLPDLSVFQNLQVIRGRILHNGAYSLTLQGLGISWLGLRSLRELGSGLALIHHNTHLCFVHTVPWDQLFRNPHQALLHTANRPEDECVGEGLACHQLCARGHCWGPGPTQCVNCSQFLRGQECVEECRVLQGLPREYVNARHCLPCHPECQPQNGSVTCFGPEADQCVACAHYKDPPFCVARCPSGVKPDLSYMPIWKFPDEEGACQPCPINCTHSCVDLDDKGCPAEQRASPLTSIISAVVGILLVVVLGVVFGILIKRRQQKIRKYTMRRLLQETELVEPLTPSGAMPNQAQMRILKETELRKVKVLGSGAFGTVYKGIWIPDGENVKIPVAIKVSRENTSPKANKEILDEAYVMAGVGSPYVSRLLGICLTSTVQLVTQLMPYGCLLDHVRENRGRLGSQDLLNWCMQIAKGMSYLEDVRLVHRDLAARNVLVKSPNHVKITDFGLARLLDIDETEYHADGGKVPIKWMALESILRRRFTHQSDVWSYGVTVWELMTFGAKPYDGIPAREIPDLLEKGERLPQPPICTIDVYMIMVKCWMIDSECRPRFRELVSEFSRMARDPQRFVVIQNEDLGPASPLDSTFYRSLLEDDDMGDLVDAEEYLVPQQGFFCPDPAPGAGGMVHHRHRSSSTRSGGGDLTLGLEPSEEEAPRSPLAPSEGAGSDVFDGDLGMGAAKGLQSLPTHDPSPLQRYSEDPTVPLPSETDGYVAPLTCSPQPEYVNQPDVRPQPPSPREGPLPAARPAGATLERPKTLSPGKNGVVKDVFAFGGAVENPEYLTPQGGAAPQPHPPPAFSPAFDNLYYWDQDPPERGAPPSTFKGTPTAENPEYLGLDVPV
Experimental: as §1, §2, §3, §4, §5, §6

Ba/F3 ERBB2-L869R = molecular target: T7, Ba/F3 ERBB2-L869R (Homo sapiens, UniProt P04626, L869R, cells depend on it); assay: Cell viability assay (CellTiter Glo); type: cell-based, mouse; settings: 72 hours; 3000 cells per well, 96-well plates; read-out: Cell viability IC50, nM, Ba/F3 ERBB2-L869R
T7 construct: Ba/F3 cell lines were engineered to express human ERBB2 or EGFR kinases, rendering the cells IL-3 independent
T7 sequence (P04626 whole entry L869R): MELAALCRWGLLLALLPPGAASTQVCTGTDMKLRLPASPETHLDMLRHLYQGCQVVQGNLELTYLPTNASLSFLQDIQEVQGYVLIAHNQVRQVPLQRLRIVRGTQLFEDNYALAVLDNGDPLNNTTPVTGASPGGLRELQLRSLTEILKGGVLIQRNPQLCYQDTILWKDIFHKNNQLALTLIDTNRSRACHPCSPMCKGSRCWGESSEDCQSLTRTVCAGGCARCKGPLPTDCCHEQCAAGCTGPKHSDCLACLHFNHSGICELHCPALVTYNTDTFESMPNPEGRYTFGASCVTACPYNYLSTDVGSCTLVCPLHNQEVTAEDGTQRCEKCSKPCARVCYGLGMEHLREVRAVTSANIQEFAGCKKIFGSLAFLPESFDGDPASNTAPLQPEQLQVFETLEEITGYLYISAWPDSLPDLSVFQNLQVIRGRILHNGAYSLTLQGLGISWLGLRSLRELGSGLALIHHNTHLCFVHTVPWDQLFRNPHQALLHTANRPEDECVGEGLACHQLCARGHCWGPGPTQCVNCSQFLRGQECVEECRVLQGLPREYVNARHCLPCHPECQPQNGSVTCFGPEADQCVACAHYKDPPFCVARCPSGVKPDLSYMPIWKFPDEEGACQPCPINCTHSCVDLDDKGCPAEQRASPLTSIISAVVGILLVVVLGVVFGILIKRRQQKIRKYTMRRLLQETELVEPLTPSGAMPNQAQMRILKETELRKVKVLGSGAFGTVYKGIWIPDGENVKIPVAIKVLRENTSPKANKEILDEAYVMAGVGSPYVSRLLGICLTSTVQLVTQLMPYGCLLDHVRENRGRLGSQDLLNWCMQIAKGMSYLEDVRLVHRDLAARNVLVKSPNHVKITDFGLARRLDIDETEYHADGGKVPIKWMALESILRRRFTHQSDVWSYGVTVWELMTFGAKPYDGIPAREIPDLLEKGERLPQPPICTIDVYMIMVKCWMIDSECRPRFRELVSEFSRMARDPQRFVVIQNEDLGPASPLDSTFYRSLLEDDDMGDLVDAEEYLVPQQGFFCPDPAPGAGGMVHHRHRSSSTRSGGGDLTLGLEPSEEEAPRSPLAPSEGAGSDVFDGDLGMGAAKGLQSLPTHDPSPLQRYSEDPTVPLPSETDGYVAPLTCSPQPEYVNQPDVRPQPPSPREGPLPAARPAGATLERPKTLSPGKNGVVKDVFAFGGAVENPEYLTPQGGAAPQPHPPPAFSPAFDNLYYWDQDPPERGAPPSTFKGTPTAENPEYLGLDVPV
Experimental: as §1, §2, §3, §4, §5, §6

Ba/F3 ERBB2-T798M = molecular target: T8, Ba/F3 ERBB2-T798M (Homo sapiens, UniProt P04626, T798M, cells depend on it); assay: Cell viability assay (CellTiter Glo); type: cell-based, mouse; settings: 72 hours; 3000 cells per well, 96-well plates; read-out: Cell viability IC50, nM, Ba/F3 ERBB2-T798M
T8 construct: Ba/F3 cell lines were engineered to express human ERBB2 or EGFR kinases, rendering the cells IL-3 independent
Experimental: as §1, §2, §3, §4, §5, §6

Ba/F3 ERBB2-V777L = molecular target: T9, Ba/F3 ERBB2-V777L (Homo sapiens, UniProt P04626, V777L, cells depend on it); assay: Cell viability assay (CellTiter Glo); type: cell-based, mouse; settings: 72 hours; 3000 cells per well, 96-well plates; read-out: Cell viability IC50, nM, Ba/F3 ERBB2-V777L
T9 construct: Ba/F3 cell lines were engineered to express human ERBB2 or EGFR kinases, rendering the cells IL-3 independent
Experimental: as §1, §2, §3, §4, §5, §6

[4] = molecular target: T10, Ba/F3 ERBB2-V777_G778insGC (Homo sapiens, UniProt P04626, INS778CG, cells depend on it); assay: Cell viability assay (CellTiter Glo); type: cell-based, mouse; settings: 72 hours; 3000 cells per well, 96-well plates; read-out: Cell viability IC50, nM, Ba/F3 ERBB2-V777_G778insGC
T10 construct: Ba/F3 cell lines were engineered to express human ERBB2 or EGFR kinases, rendering the cells IL-3 independent
Experimental: as §1, §2, §3, §4, §5, §6

[5] = molecular target: T11, Ba/F3 ERBB2-P780_Y781insGSP (Homo sapiens, UniProt P04626, DUP778-780, cells depend on it); assay: Cell viability assay (CellTiter Glo); type: cell-based, mouse; settings: 72 hours; 3000 cells per well, 96-well plates; read-out: Cell viability IC50, nM, Ba/F3 ERBB2-P780_Y781insGSP
T11 construct: Ba/F3 cell lines were engineered to express human ERBB2 or EGFR kinases, rendering the cells IL-3 independent
T11 sequence (P04626 with tags, fused parts or gaps DUP778-780): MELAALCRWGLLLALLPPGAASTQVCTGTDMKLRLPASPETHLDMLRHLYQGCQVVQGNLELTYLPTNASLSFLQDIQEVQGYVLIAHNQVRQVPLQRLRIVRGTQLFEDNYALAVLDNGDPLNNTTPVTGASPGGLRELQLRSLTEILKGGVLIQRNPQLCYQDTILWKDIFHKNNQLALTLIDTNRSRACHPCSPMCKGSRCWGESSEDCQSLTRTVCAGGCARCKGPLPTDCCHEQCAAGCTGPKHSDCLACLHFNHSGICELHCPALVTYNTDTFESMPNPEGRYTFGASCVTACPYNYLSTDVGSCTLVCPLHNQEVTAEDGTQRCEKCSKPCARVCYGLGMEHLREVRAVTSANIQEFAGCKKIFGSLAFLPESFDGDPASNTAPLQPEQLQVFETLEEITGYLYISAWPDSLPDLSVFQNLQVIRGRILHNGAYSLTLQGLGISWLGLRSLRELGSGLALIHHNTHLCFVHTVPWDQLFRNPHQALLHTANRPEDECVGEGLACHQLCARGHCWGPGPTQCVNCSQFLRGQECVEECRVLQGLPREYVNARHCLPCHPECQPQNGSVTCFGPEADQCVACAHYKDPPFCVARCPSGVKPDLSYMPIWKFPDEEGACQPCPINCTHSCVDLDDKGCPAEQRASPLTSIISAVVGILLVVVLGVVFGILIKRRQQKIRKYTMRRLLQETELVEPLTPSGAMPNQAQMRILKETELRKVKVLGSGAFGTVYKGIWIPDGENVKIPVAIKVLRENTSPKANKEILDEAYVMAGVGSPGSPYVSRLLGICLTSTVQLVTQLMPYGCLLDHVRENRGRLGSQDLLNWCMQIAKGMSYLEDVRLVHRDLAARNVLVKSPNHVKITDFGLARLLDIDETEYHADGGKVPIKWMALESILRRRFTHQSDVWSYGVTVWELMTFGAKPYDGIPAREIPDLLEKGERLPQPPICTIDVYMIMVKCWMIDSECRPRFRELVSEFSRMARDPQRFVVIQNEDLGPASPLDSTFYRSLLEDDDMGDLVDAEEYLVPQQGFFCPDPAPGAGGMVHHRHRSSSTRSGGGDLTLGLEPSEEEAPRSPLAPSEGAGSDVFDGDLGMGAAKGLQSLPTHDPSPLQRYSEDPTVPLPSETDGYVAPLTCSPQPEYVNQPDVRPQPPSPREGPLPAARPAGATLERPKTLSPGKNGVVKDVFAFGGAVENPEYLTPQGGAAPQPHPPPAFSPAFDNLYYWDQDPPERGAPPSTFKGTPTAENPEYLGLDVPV
Experimental: as §1, §2, §3, §4, §5
Plates were placed in a 37° C., 5% CO2 incubator for 72 hours. Plates were then removed from the incubator and equilibrated for 15 minutes at room temperature. 40 IA of CellTiter Glo reagent (Promega) was added to measure the relative level of metabolically active cells by quantifying intracellular ATP concentrations. Plates were incubated for 30 minutes at room temperature, and luminescence was measured. […] Graphical curves were fitted using a nonlinear regression model with a sigmoidal dose response.

Row | Structure (SMILES) | IC50 (BT-474 cells) [nM] | pIC50 [1] | pIC50 [2] | IC50 (A431 cells) [nM] | IC50 (MDA-MB-175VII cells) [nM] | GI50 [3] [nM] | GI50 (Ba/F3 ERBB2 wt) [nM] | GI50 (Ba/F3 ERBB2-G776VC) [nM] | GI50 (Ba/F3 ERBB2-L755S) [nM] | GI50 (Ba/F3 ERBB2-L869R) [nM] | GI50 (Ba/F3 ERBB2-T798M) [nM] | GI50 (Ba/F3 ERBB2-V777L) [nM] | GI50 [4] [nM] | GI50 [5] [nM]
1 | Cc1cc(Nc2ncnc3cc(OCCO)c(NC(=O)C#CC4CC4)cc23)ccc1Oc1ccn2ncnc2c1 [Compound 168, 3-cyclopropyl-N-[7-(2-hydroxyethoxy)-4-[(3-methyl-4-[[1,2,4]triazolo[1,5-a]pyridin-7-yloxy]phenyl)amino]quinazolin-6-yl]prop-2-ynamide] | 2.17 | 7.77 | 7.15 |  |  |  |  |  |  |  |  |  |  | 
2 | CC#CC(=O)Nc1ccc2ncnc(Nc3ccc(Cc4ccn5ncnc5c4)cc3)c2c1 [Compound 14, N-[4-[(4-[[1,2,4]triazolo[1,5-a]pyridin-7-ylmethyl]phenyl)amino]quinazolin-6-yl]but-2-ynamide] | 9.6 | 7.84 |  | 3550 | 30.4 | 36 | 5.1 | 13 | 25 | 9.5 | 482 | 1.5 | 4 | 3.8
3 | CC#CC(=O)Nc1ccc2ncnc(Nc3ccc(Oc4ccc(C)nc4)cc3)c2c1 [Compound 9, N-[4-([4-[(6-methylpyridin-3-yl)oxy]phenyl]amino)quinazolin-6-yl]but-2-ynamide] | 12.3 | 7.36 |  | 454 | 142 | 20 | 5.7 | 21 | 35 | 15 | 239 | 4.1 | 2.4 | 5.5
4 | CC#CC(=O)Nc1ccc2ncnc(Nc3ccc(Oc4ccc(C)nc4)c(C)c3)c2c1 [Compound 5, N-[4-([3-methyl-4-[(6-methylpyridin-3-yl)oxy]phenyl]amino)quinazolin-6-yl]but-2-ynamide] |  |  |  |  |  | 8.3 | 2.3 | 3.8 | 6 | 2.3 | 44 | 1.1 | 1.3 | 1.1
5 | CC#CC(=O)Nc1ccc2ncnc(Nc3ccc(Oc4cnc(C)cn4)cc3)c2c1 [Compound 10, N-[4-([4-[(5-methylpyrazin-2-yl)oxy]phenyl]amino)quinazolin-6-yl]but-2-ynamide] | 35.5 | 7.13 |  | 1080 | 232 | 49 | 13.1 | 81 | 81 | 15 | 220 | 7.3 | 9.3 | 16
6 | CC#CC(=O)N(C)c1ccc2ncnc(Nc3ccc(Oc4ccn5ncnc5c4)cc3)c2c1 [Compound 8, N-methyl-N-[4-[(4-[[1,2,4]triazolo[1,5-a]pyridin-7-yloxy]phenyl)amino]quinazolin-6-yl]but-2-ynamide] | 16.7 | 7.14 |  | > 10000 | 562 | 276 | 31 | 117 | 159 | 52 | 1500 | 11 | 34 | 20.4
7 | CC#CC(=O)Nc1ccc2ncnc(Nc3ccc(Oc4ccn(C)c(=O)c4)c(C)c3)c2c1 [Compound 3, N-[4-([3-methyl-4-[(1-methyl-2-oxopyridin-4-yl)oxy]phenyl]amino)quinazolin-6-yl]but-2-ynamide] | 13.5 | 6.82 |  | 4440 | 43.3 | 8.1 | 18 | 30 |  |  |  |  |  | 7.1
